Data from US20150285805A1, “BIOMARKERS OF MULTIPLE MYELOMA DEVELOPMENT AND PROGRESSION” (priority 2012, published 2015).

Experiments:
[1] = cited from earlier work
[2] = system: MM cells; conditions: phosphocholine administration; cited from earlier work
[3] = system: microvascular endothelial cell; conditions: in vitro; cited from earlier work
[4] = system: OPM2 myeloma cell line; experiment: AnnexinV-PI cytometry, apoptosis/viability upon LPC supplementation; type: cell-based; conditions: 10 μM LPC, 24 h, vs vehicle
Method: (§1) FIG. 5. Effects of LPC supplementation on MM cells viability. A) Viability of myeloma cell lines MM.1S or OPM2 or three samples of myeloma patient-derived CD138 positive cells upon 24 h incubation with vehicle or 10 μM LPC, as fold change of annexinV-propidium iodide double negative cells relative to vehicle alone. B) MTT assay of OPM2 cells upon 72 h supplementation with LPC, one representative experiment (n=6). Y axis: median 570-655 optic density (O.D.); error bars: standard deviation; asterisks: p<0.05 at two-tailed t-test for paired samples.
(§2) Myeloma cell lines (OPM2 and MM.1S) were cultured in RPMI1640 media (Gibco), supplemented with glutamax (1 mM), penicillin (100 U/ml), and streptomycin (100 μg/ml). Primary MM cells were obtained by CD138 positive immunomagnetic selection (Miltenyi) from bone marrow mononuclear cells. CD138^+ cells were cultured in 10% FBS and IL-6 (2 ng/ml). Apoptosis was detected by AnnexinV-PI (BD) cytometry (AccuriC6 cytometer, analyzed with FCS-express). For MTT assays, OPM2 cells were cultured with or without 10 μM LPC and FCS, incubated with 5 mg/ml MTT (Sigma), dissolved with DMSO and measured for ABS at 570-655 nm with an ELISA reader (Biorad).

[5] = system: myeloma patient-derived CD138 positive cells; experiment: as above; type: cell-based; conditions: 10 μM LPC, 24 h, vs vehicle; three patient samples
Method: as §1, §2

[6] = system: MM.1S myeloma cell line; experiment: as above; type: cell-based; conditions: 10 μM LPC, 24 h, vs vehicle
Method: as §1, §2

[7] = system: OPM2 cells; experiment: MTT assay upon LPC supplementation; type: cell-based; conditions: 10 μM LPC, 72 h, with or without FCS; particularly upon serum starvation
Method: as §1, §2

[8] = system: T cells; conditions: cited from earlier work

CNCC(=O)O [Sarcosine, Sarcosine (N-Methylglycine)]
cancer-promoting in vitro activities [1]: induction of migration, invasiveness, and up-regulation of pathogenic receptors

C[N+](C)(C)CCOP(=O)([O-])O [phosphocholine]
rescue of MM cells from the mevalonate pathway inhibitor apomine [2]: can rescue MM cells

C3f: fragment of the C3 complement factor, sequence SSKITHRIHWESASLLR; detected fragment HWESASLL (listed as Homo sapiens)
IGF1 signaling and microvascular endothelial cell proliferation [3]: actively modulate | TGFβ-1 secretion by endothelial cells [3]: enhance TGFβ-1 secretion

lysophosphocholines [LPC]
apoptosis (annexinV-propidium iodide) [4]: decrease apoptosis | apoptosis (annexinV-propidium iodide) [5]: decrease apoptosis | apoptosis (annexinV-propidium iodide) [6]: decrease apoptosis | viability (MTT, 570-655 O.D.) [7]: increase viability

Nc1c(O)cccc1C(=O)CC(N)C(=O)O (stereo not shown) [3-hydroxykynurenine]
T cell depletion ([8]; in vitro and in vivo, transplanted mice): depleting in vitro and in vivo T cells | mismatched allograft tolerance ([8]; mouse, in vivo): promoting mismatched allograft tolerance
